Experimental data published in patent US12558342B2, “2-[2-({12,12-dimethyl-4-oxo-6-phenyl-3,11-dioxatricyclo[8.4.0.0,2,7]tetradeca-1,5,7,9-tetraen-8-yl}oxy)acetamido]benzamide and derivatives as inhibitor of clock:bmal1 interaction for the treatment of circadian rhythm diseases and disorders” (KOC UNIVERSITESI, priority 2019, dated 2026).

Assays:
Assay type in all cases: binding
BMAL1 = target: T1, BMAL1 (Mus musculus, UniProt Q9WTL8); assay: LC-MS/MS of pull-down precipitates, BMAL1; details: Competitor 0 μM
T1 construct: expressed in transfected cells; host or cells: HEK 293T
T1 sequence (Q9WTL8 whole entry): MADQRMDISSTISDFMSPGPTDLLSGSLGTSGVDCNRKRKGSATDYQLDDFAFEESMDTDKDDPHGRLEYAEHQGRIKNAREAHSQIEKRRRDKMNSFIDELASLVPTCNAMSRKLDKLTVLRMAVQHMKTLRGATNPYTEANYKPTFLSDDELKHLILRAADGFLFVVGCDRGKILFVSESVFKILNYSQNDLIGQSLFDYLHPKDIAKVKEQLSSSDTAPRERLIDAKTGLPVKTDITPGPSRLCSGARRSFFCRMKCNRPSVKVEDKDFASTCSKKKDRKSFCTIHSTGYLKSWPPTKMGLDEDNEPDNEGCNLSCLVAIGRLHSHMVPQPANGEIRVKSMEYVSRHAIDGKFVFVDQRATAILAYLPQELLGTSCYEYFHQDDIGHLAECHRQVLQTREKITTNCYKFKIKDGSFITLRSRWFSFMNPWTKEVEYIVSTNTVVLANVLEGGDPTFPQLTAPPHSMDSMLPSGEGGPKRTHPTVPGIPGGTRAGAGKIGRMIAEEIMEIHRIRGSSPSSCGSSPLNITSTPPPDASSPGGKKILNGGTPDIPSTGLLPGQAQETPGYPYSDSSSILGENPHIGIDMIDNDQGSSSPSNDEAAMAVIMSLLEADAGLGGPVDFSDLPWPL
Method: (§1) HEK293T cells were transiently transfected with tag-free hsClock and mBmal1. After 48 hours of transfection, cells were harvested and whole cell lysate was prepared with ice-cold lysis buffer (50 mM Tris-HCl pH 7.4, 2 mM EDTA, 1 mM MgCl2, 0.2% NP-40, 1 mM sodium orthovanadate, 1 mM sodium fluoride and protease inhibitor cocktail) followed by centrifugation at 7000×g at 4° C. for 10 minutes. Lysate was diluted with ice-cold 2× binding buffer (100 mM Tris-HCl pH 7.4, 300 mM NaCl, 0.2% NP-40, 2 mM sodium orthovanadate, 2 mM sodium fluoride, and protease inhibitor cocktail) 27. The lysate was divided into three fractions to be treated with either DMSO, or 20 μM of bitoinylated-CLK8 (bait) with or without 200 μM CLK8 (competitor). […]
The next step was to check for off-targets of CLK8. […] Since the amount of precipitated endogenous CLOCK was insufficient to be detected in LC-MS/MS, whole cell lysate of HEK 293T cells overexpressing CLOCK and BMAL1 were used for LC-MS/MS. We determined proteins that potentially bind to CLK8 by utilizing a minimum threshold for peptide spectrum matches and coverage equal to those of the main target, CLOCK. We also excluded proteins that have been detected in negative controls of the CRAPome database (32), assuming them as abundant sticky proteins. […] BMAL1 was detected in lower amounts when a competitor was present. […]

CLOCK [1] = target: T2, CLOCK (Homo sapiens, UniProt O15516); assay: Pull-down assay with biotinylated CLK8, lysate of HEK293T cells overexpressing CLOCK and BMAL1; parameters: expressed in transfected cells; host or cells: HEK293T; details: 200 μM competitor
T2 sequence (O15516 1-846): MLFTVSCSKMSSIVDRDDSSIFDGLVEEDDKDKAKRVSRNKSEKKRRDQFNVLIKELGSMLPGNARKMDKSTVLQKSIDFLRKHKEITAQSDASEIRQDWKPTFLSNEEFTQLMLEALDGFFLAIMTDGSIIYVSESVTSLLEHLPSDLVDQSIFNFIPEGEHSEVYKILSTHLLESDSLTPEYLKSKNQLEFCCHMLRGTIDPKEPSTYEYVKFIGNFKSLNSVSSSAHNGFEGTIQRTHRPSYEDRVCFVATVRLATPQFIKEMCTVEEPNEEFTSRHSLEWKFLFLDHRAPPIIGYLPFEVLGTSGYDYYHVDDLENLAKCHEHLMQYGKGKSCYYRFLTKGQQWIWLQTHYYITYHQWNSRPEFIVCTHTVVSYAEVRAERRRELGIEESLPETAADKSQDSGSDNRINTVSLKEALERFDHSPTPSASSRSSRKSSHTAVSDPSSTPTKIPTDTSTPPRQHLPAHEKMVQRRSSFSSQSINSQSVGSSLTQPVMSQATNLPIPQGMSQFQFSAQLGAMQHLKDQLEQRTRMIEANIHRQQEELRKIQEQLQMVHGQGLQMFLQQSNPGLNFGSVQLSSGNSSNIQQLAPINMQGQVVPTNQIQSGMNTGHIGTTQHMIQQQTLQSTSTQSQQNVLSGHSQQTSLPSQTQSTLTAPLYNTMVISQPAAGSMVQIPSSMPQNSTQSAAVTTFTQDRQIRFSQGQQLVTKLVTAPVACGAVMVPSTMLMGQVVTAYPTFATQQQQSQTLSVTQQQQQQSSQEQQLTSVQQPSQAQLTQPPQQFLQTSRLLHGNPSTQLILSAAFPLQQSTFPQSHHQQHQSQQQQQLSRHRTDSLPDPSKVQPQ
Method: as §1, with “(competitor). The lysate-compound samples were incubated and mixed continuously at 4° C. for 1 hour. After equilibrating NeutroAvidin Agarose resin (Thermo Scientific) with lysis buffer, the lysate-compound mixture and NeutroAvidin Agarose resin were incubated and mixed continuously at 4° C. overnight. The beads were washed four times with 1× binding buffer. To elute the bound proteins Laemmli buffer was added and samples were heated at 95° C. for 7 minutes. The pull-down precipitates were subjected to SDS-PAGE and transferred to a PVDF membrane (Millipore).” for “(competitor).”

CLOCK [2] = target: T2, CLOCK; assay: Pull-down assay with biotinylated CLK8, U2OS lysate with endogenous CLOCK; parameters: expressed in transfected cells; host or cells: HEK293T

## CC1(C)CCc2c(cc(OCC(=O)Nc3ccccc3C(N)=O)c3c(-c4ccccc4)cc(=O)oc23)O1 [CLK8, 2-[2-({12,12-dimethyl-4-oxo-6-phenyl-3,11-dioxatricyclo [8.4.0.0,2,7]tetradeca-1,5,7,9-tetraen-8-yl}oxy)acetamido] benzamide]
BMAL1
  Peptide spectrum matches, BMAL1: 56
CLOCK [1]
  binding to CLOCK (competition with bait): specifically binds to CLOCK
CLOCK [2]; endogenous CLOCK, input vs precipitated sample
  affinity for CLOCK: high affinity for CLOCK
CLOCK [2]; except BMAL1, including NPAS2
  other core clock components as target: none of the other core clock components were detected as a target
